From patent US11739122B2, “Glycopeptide antibiotic compounds, methods for producing the same, and uses thereof” (Academia Sinica, priority 2019, dated 2023)

Tested on: MRSA ATCC 700787
Assay: Thin-section TEM, cell wall morphology
Assay type: cell-based, Staphylococcus aureus
Protocol: Thin-Section Transmission Electron Microscopy (TEM)
An overnight cultured MRSA ATCC 700787, VRE ATCC 700221 or A. baumannii ATCC 19606 was individually sub-cultured into a fresh medium. Bacteria at the exponential phase were treated with a given test compound at a concentration of 4×MIC for 1-4 hour at 37° C. and followed by wash and resuspension in PBS. Bacteria cells for the TEM analysis were prepared as follows: Cells were fixed with 2.5% glutaraldehyde for 30 minutes. After the fixation, cells were washed twice with PBS and fixed with 1% osmium tetraoxide for another 30 minutes. All the buffer was removed with distilled water. The cells were then stained with 1% uranyl acetate and dehydrated with a graded ethanol solution. Cells were embedded in resin. Finally, each sample was cut into thin slices of approximately 90 nm with a glass knife and stained with uranyl acetate. The images of bacterial morphological were recorded.
The cell wall/membrane apparently is the targets, while the extent of damage depends on what compound imposes on the strain. […] Cell wall thickening has been a common phenotype in clinical MRSA isolates, which may well be a phenotypic determinant for VRSA. The systemic cell-wall damage may account for the cell-wall biosynthesis crippled all over the cell surface in cell-wall thickening strains, thus leading cells to lysis as a result of the osmotic pressure of cytoplasm.

Compound: CCCCCCCC(=O)N[C@H]1[C@H](O[C@@H]2c3ccc(c(Cl)c3)Oc3cc4cc(c3O)Oc3ccc(cc3Cl)C[C@H]3NC(=O)[C@H](N)c5ccc(O)c(c5)Oc5cc(O)cc(c5)[C@H](NC3=O)C(=O)N[C@H]4C(=O)N[C@H]3C(=O)N[C@@H]2C(=O)N[C@H](C(=O)O)c2cc(O)cc(O)c2-c2cc3ccc2O)O[C@H](CO)[C@@H](O)[C@@H]1O [Compound 14, r6,N-octyl-Glc Tei]
- cell wall morphology by TEM: cell wall damage toward full cell lysis
